Source: article PMC11098088, “A distinct, high-affinity, alkaline phosphatase facilitates occupation of P-depleted environments by marine picocyanobacteria” (Proceedings of the National Academy of Sciences of the …, 2024)

T1: Psip1 (Prochlorococcus marinus, UniProt Q7V066)
T1 construct: gene PMM1416; predicted signal peptide removed; codon-optimized; pET-23a(+), C-terminal His-tag; E. coli BL21(DE3); reconstituted with Fe and Ca
T1 sequence (Q7V066 24-694): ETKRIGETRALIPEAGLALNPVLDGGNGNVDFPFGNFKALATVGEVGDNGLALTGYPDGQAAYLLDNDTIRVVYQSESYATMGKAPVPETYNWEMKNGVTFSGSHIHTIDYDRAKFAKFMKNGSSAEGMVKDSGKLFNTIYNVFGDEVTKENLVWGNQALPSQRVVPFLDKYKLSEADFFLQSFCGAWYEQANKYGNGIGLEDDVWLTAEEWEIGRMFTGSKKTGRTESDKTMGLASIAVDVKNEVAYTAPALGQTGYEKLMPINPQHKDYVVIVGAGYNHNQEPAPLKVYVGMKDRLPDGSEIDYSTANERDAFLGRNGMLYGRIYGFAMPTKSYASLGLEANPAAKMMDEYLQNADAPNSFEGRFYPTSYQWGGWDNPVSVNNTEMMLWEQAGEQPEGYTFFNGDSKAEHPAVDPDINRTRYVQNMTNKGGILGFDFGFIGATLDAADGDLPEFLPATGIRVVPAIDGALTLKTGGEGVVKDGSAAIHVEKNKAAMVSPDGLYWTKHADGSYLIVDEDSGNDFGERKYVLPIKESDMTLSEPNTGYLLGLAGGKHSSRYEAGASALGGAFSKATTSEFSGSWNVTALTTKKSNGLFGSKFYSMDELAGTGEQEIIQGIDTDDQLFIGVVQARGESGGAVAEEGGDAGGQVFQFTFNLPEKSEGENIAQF

B1: Psip1 (Prochlorococcus marinus subsp. pastoris str. CCMP1986) (protein)
chain: T1 sequence (Q7V066 24-694)
notes: predicted signal peptide removed; codon-optimized; pET-23a(+), C-terminal His-tag; E. coli BL21(DE3); reconstituted with Fe and Ca

Experiments:
Psip1 = target: T1, Psip1; assay: inhibition of MUF release from MUF-P; assay type: biochemical; settings: competing with MUF-P; estimated Ki; Fe(III) and Ca2+; Pi release by phosphomolybdate assay
Source text: inhibition of MUF release from […] on Psip1 | natural organic P compounds: glycerol-1-phosphate (G1P) | glycerol-3-phosphate (G3P) | phosphocholine (PC) | phosphorylethanolamine (PE) | adenosine monophosphate (AMP) | glucosamine-6-phosphate (Ga6P) by measuring the inhibition of MUF release from […]

purified protein [1] = substrate: O=[N+]([O-])c1ccc(OP(=O)(O)O)cc1; assay: purified protein; assay type: biochemical, Prochlorococcus marinus; settings: pH 9.8, Fe(III) and Ca2+, 30 °C
purified protein [2] = substrate: Cc1cc(=O)oc2cc(OP(=O)(O)Oc3ccc4c(C)cc(=O)oc4c3)ccc12; assay: purified protein; settings: pH 8.8, Fe(III) and Ca2+, 30 °C, phosphodiesterase activity

Molecule | Ki (Psip1) | Km (purified protein [1]) | Km (purified protein [2])
C[N+](C)(C)CCOP(=O)([O-])O [phosphocholine] | 2.20 ± 0.37 µM | – | –
Nc1ncnc2c1ncn2[C@@H]1O[C@H](COP(=O)(O)O)[C@@H](O)[C@H]1O [adenosine monophosphate] | 1.52 ± 0.22 µM | – | –
NCCOP(=O)(O)O [phosphorylethanolamine] | 4.46 ± 1.08 µM | – | –
N[C@H]1C(O)O[C@H](COP(=O)(O)O)[C@@H](O)[C@@H]1O (some centres unmarked) [glucosamine-6-phosphate] | 0.60 ± 0.11 µM | – | –
O=P(O)(O)OCC(O)CO (centres unmarked) [glycerol-1-phosphate] | 1.20 ± 0.20 µM | – | –
O=P(O)(O)OC[C@H](O)CO [glycerol-3-phosphate] | 0.79 ± 0.15 µM | – | –
B1 | – | 2.5 ± 1.18 µM | 46.1 ± 5.72 µM
